The values that follow come from patent US8828997B2, “2,3-dihydro-1H-imidazo(1,2-a)pyrimidin-5-one derivatives, preparation thereof, and pharmaceutical use thereof” (Sanofi, priority 2009, dated 2014).

Holding throughout (type): cell-based
The subject of assay [1] is AKT protein phosphorylated on serine 473 (pAKT-S473) in PC3 human prostate carcinoma cells. The experiment in a line: pAKT expression in PC3 human prostate carcinoma cells measured by western blotting (test A). The note with it: PC-3, 1 to 2 h incubation, absolute IC50. Here is the method:
The inhibitory activity of the molecules on AKT phosphorylation is measured either by western blotting using the technique described below, or by the MSD Multi-spot Biomarker detection technique from Meso Scale Discovery also described below.
Study of pAKT Expression in PC3 Human Prostate Carcinoma Cells Measured by Western Blotting (test A):
This test is based on measuring the expression of the AKT protein phosphorylated on serine 473. The phosphorylation of AKT (pAKT) is measured by western blotting in the PC3 human prostate carcinoma line (ATCC CRL-1435), using an antibody that specifically recognises pAKT-S473.
On day 1, the PC3 cells are seeded into 6-well plates (TPP, #92006) at the concentration of 0.8×10^6 cells/well in 1800 μl of DMEM medium (DMEM Gibco #11960-044) containing 10% of foetal calf serum (SVF Gibco, #10500-056) and 1% glutamine (L-Glu Gibco #25030-024), and incubated at 37° C., 5% CO2, overnight.
On day 2, the cells are incubated in the presence or absence of the test products for 1 to 2 hours at 37° C. in the presence of 5% CO2. The molecules, diluted in dimethyl sulphoxide (DMSO Sigma #D2650), are added from a 10-times concentrated stock solution, the final percentage of DMSO being 0.1%. The molecules are tested either at a single concentration of less than or equal to 10 μM, or at increasing concentrations in a range that can extend from less than 1 nM to 10 μM.
After this incubation, the cells are lysed for the preparation of the proteins. After the culture medium has been drawn off, the cells are rinsed with 1 ml of PBS (DPBS Gibco, #14190-094), recovered by scraping in 200 μl of complete HNTG buffer and transferred into a 96-well plate (Greiner #651201), and lysed for 1 h on ice. The HNTG buffer is composed of the following mixture: 50 mM hepes, 150 mM NaCl, 1% triton, 10% glycerol, with extemporaneous addition of one Mini Protease Inhibitor Cocktail tablet (Roche 1836153) and of one Phosphatase Inhibitor Cocktail tablet (Roche104906837001) per 10 ml of buffer.
The lysate is centrifuged for 10 min at 6000 rpm. 155 μl of supernatant are recovered. 150 μl are incubated for denaturation for 5 min at 95° C. in the presence of 4× NuPAGE LDS Sample Buffer diluted 4-fold (InVitrogen ref NP0007) and of 10× NuPAGE Sample Reducing Agent diluted 10-fold (InVitrogen ref NP0009). These samples are then frozen at −20° C. 5 μl are assayed by the microBCA technique according to the technical bulletin of the MicroBCA Protein Assay Kit (Pierce #23235).
For protein separation, 20 μg of proteins are loaded on to a NU-PAGE 4-12% Bis Tris Gel 12 well (InVitrogen ref NP0322BOX) and the migration is carried out for 1 h 30 in 20× NU-PAGE MOPS SDS Running Buffer diluted 20-fold (InVitrogen ref NP0001), at 150 volts.
The gel is then transferred on to an Invitrolon PVDF membrane (Invitrogen #LC2007) permeabilised before and after a few seconds in ethanol (Ethanol Fischer Scientific #E/0600DF/15).
The transfer is carried out in a Biorad tank at 30 volts overnight or at 60 volts for 3 hours, in the presence of 20× NUPAGE Transfer Buffer diluted 20-fold (InVitrogen ref NP0006).
The membrane is then saturated in saturating solution composed of TBS (10× Tris Buffered Saline, Sigma #T5912, diluted 10-fold), 0.1% Tween 20 (Sigma #P5927) and 3% BSA (Bovine Albumin Serum Fraction V, Sigma #A4503) for 6 h after overnight transfer or else for 1 h after transfer for a period of 3 h.
The primary antibodies are diluted to 1/1000 for the anti-phospho AKT-Ser473 antibody (1931-12, rabbit monoclonal, cat#4058 from Cell Signaling Technology Abcam), in saturating solution composed of PBS, 0.1% Tween 20 and 3% BSA, and then shaken overnight at 4° C.
Two rinses for 5 min in washing solution composed of TBS and 0.1% Tween 20 are carried out before hybridisation of the secondary antibodies. […]
A general note: Immunoblotting shows a protein as a band on a membrane.

Assay [2] has as its system translocation of the LC3 protein in Hela GFP-LC3 cells. The experiment in a line: Translocation of the LC3 protein in Hela human cells measured by image analysis cytometry (test C, autophagy). To be noted: Homo sapiens, HeLa, 2 h, EBSS + 10 μM hydroxychloroquine, cells with LC3 granulations, absolute IC50. The gist of the method:
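HeLa clone stably expressing GFP-LC3, starved in EBSS with 10 μM hydroxychloroquine plus compound (10 nM to 1 μM range, 0.1% DMSO) for 2 h at 37 °C. After PFA fixation and Hoechst staining, LC3 translocation read by image analysis cytometry; IC50 from dose-response curves, mean of 2 independent experiments.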

Assay [3] has as its system P. falciparum (highly chloroquine-resistant strain Fcm29-Cameroon). The experiment in a line: Antimalarial activity test (radioactive micromethod of Desjardins, tritiated hypoxanthine incorporation). To be noted: Plasmodium falciparum, Erythrocyte, infected human erythrocytes, 48 h. Here is the method:
Antimalarial Activity Test
The antimalarial activity tests are carried out according to the radioactive micromethod of Desjardins (R. E. Desjardins, C. J. Canfield, J. D. Haynes, J. D. Chulay, Antimicrob. Agents Chemother., 1979, 16, 710-718). The assays are carried out in 96-well microplates (Test Plates Ref. 92696, Techno Plastic Products Ag, Zollstrasse 155, CH-8219 Trasadingen). The P. falciparum strains are cultured in solutions of RPMI 1640 supplemented with 5% of human serum with a haematocrit at 2% and a blood parasite concentration at 1.5%. For each assay, the parasites are incubated with selected concentrations of drugs for 48 h at 37° C. in a humid atmosphere and at 5% CO2. Artemisinin, artesunate and also chloroquine diphosphate are used as reference molecules. The first dilution of the drug is prepared at 1 mg/ml in dimethyl sulphoxide. The range of dilutions of the successive daughter solutions is also prepared in dimethyl sulphoxide. Each daughter dilution is subsequently diluted to 1/50 in RPMI 1640 supplemented with 5% of human serum, all the dilutions being carried out at 37° C. These dilutions are then added to the parasites in culture in the microplates. After addition of the drug, the parasites are in culture in RPMI 1640 containing 5% of human serum and 1% of dimethyl sulphoxide. The parasite growth is measured by incorporation of tritiated hypoxanthine (added 24 h after the beginning of the exposure to the drug) compared with the incorporation in the absence of drug.
The activity of the product is translated to % inhibition of the growth of P. falciparum (highly chloroquine-resistant strain Fcm29-Cameroon) at 1 μM and 0.1 μM in an in vitro test using infected human erythrocytes.

In general, IC50 refers to the point on the concentration scale where inhibition reaches its midpoint. In general, inhibition refers to the relative decrease from the control value, in per cent.

`CC(c1ccccc1)N1c2nc(N3CCOCC3)cc(=O)n2C[C@@]1(C)C(F)(F)F` (mixture of isomers) [Example 16, (2S)-2-Methyl-7-(morpholin-4-yl)-1-((R) and (5)-1-phenylethyl)-2-(trifluoromethyl)-2,3-dihydroimidazo[1,2-a]pyrimidin-5(1H)-one] returned an IC50 in assay [1] of 79 nM.
For `C[C@@H](CN1c2nc(N3CCOCC3)cc(=O)n2C[C@@]1(C)C(F)(F)F)c1ccccc1` [Example 8, (S)-2-Methyl-7-morpholin-4-yl-1-((R)-2-phenylpropyl)-2-trifluoromethyl-2,3-dihydro-1H-imidazo[1,2-a]pyrimidin-5-one], the IC50 in assay [2] came out at 13 nM; in assay [1], 15 nM.
Regarding `C[C@@]1(C(F)(F)F)Cn2c(nc(N3CCOCC3)cc2=O)N1CCc1ccccc1` [Example 4, (S)-2-Methyl-7-morpholin-4-yl-1-phenethyl-2-trifluoromethyl-2,3-dihydro-1H-imidazo[1,2-a]pyrimidin-5-one], in assay [3], the inhibition at 0.1 µM turned out to be 54%. In addition, the inhibition at 1 µM in assay [3] was 97%. The IC50 in assay [2] worked out at 107 nM; in assay [1] it was 25 nM.
`C[C@@]1(C(F)(F)F)Cn2c(nc(N3CCOCC3)cc2=O)N1CCOc1ccccc1` [Example 6, (S)-2-Methyl-7-morpholin-4-yl-1-(2-phenoxyethyl)-2-trifluoromethyl-2,3-dihydro-1H-imidazo[1,2-a]pyrimidin-5-one]: the IC50 in assay [2] turned out to be 81 nM; in assay [1] it was 1640 nM.
Take `C[C@@]1(C(F)(F)F)Cn2c(nc(N3CCOCC3)cc2=O)N1C[C@@H](O)c1ccccc1` [Example 10]: in assay [3], the inhibition at 0.1 µM was found to be 38% and the inhibition at 1 µM was 97%. Besides, in assay [2], the IC50 was 31 nM. Half-maximal inhibition in assay [1] (IC50) required 16 nM.
As for `C[C@@]1(C(F)(F)F)Cn2c(nc(N3CCOCC3)cc2=O)N1Cc1ccccc1` [Example 3, (S)-1-Benzyl-2-methyl-7-morpholin-4-yl-2-trifluoromethyl-2,3-dihydro-1H-imidazo[1,2-a]pyrimidin-5-one], in assay [3], the inhibition at 0.1 µM is 15%. The inhibition at 1 µM in assay [3] amounted to 95%. In addition, the IC50 in assay [2] was found to be 493 nM; in assay [1] it was 634 nM.
Take `C[C@@]1(C(F)(F)F)Cn2c(nc(N3CCOCC3)cc2=O)N1CCc1ccc(N2CCOCC2)cc1` [Example 15, (S)-2-Methyl-7-morpholin-4-yl-1-[2-(4-morpholin-4-ylphenyl)ethyl]-2-trifluoromethyl-2,3-dihydro-1H-imidazo[1,2-a]pyrimidin-5-one]: the inhibition at 0.1 µM in assay [3] came out at 39%. For the same compound, the inhibition at 1 µM in assay [3] was determined as 101%. The IC50 in assay [2] amounted to 72 nM; in assay [1], 121 nM.
In the case of `COc1ccc(CCN2c3nc(N4CCOCC4)cc(=O)n3CC2(C)C(F)(F)F)cc1` (racemic) [Example 2, (R,S)-1-[2-(4-methoxyphenyl)ethyl]-2-methyl-7-(morpholin-4-yl)-2-(trifluoromethyl)-2,3-dihydroimidazo[1,2-a]pyrimidin-5(1H)-one], the results for the IC50 in assay [2] and in assay [1] were 145 nM and 324 nM, respectively.
Consider `C[C@@]1(C(F)(F)F)Cn2c(nc(N3CCOCC3)cc2=O)N1CCCc1ccccc1` [Example 5, (S)-2-Methyl-7-morpholin-4-yl-1-(3-phenylpropyl)-2-trifluoromethyl-2,3-dihydro-1H-imidazo[1,2-a]pyrimidin-5-one], for which the IC50 is 73 nM in assay [2] and 30 nM in assay [1].
`CCC(c1ccccc1)N1c2nc(N3CCOCC3)cc(=O)n2C[C@@]1(C)C(F)(F)F` (single isomer, unassigned) [Example 14, (S)-2-Methyl-7-morpholin-4-yl-1-((S) or (R)-1-phenylpropyl)-2-trifluoromethyl-2,3-dihydro-1H-imidazo[1,2-a]pyrimidin-5-one] gave an IC50 in assay [1] of 174 nM.
For `CC(Cc1ccccc1)N1c2nc(N3CCOCC3)cc(=O)n2C[C@@]1(C)C(F)(F)F` (single isomer, unassigned) [Example 12, (2S)-2-Methyl-1-((R) or (S)-1-methyl-2-phenylethyl)-7-morpholin-4-yl-2-trifluoromethyl-2,3-dihydro-1H-imidazo[1,2-a]pyrimidin-5-one], the values for the IC50 in assay [2] and in assay [1] were 194 nM and 77 nM, respectively.
